A word on the IC50: it is the concentration that inhibits the measured activity by half.

Consider eight compounds from patent publication US12384808B2, “Modulators of TNF-α activity” (Forward Therapeutics, Inc., priority 2022, dated 2025).

Structures are written as SMILES. Bounds are passed on as bounds.

For this experiment, the target named is TNFα (Homo sapiens, UniProt P01375). Briefly: TNFα Induced HEK Blue Cellular Assay. The class given is cell-based. The settings on record: HEK Blue TNFα reporter cells, TNFα 100 pg/ml, 24 hrs at 37° C., secreted alkaline phosphatase (QUANTI-Blue) read at 620 nm; read-out: IC50 value. The essentials: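 Reporter cells (10,000/well, DMEM + 10% FBS) with compound (final […] to 0.5 nM) stimulated with 100 pg/ml TNFα, 24 h at 37 °C, 5% CO2. Secreted alkaline phosphatase read at 620 nm; IC50 by 4-parameter logistic fit after background correction against stimulated/unstimulated DMSO controls.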
Sequence of TNFα (P01375 77-233 limits assumed): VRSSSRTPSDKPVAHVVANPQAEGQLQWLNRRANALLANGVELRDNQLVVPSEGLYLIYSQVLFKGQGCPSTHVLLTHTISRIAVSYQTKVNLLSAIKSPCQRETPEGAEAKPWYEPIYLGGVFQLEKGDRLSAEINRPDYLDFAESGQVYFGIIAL
As to `[2H]C([2H])([2H])N1C(=O)c2cccc(OC(F)F)c2[C@H]2C[C@@H]1c1nc3ccc(-c4cnc(P(C)(C)=O)cc4C)cc3n12` [Example 87, (7R,14R)-1-(difluoromethoxy)-11-(6-(dimethylphosphoryl)-4-methylpyridin-3-yl)-6-(methyl-d3)-6,7-dihydro-7,14-methanobenzo[f]benzo[4,5]imidazo[1,2-a][1,4]diazocin-5(14H)-one], the IC50 lay within 100 to 1000 nM.

For `[2H]C([2H])([2H])N1C(=O)c2cccc(OC(F)F)c2[C@H]2C[C@@H]1c1nc3ccc(-c4cc(F)c(P(C)(C)=O)cc4C)cc3n12` [Example 88, (7R,14R)-1-(difluoromethoxy)-11-(4-(dimethylphosphoryl)-5-fluoro-2-methylphenyl)-6-(methyl-d3)-6,7-dihydro-7,14-methanobenzo[f]benzo[4,5]imidazo[1,2-a][1,4]diazocin-5(14H)-one], the IC50 is less than 100 nM.

With `[2H]C([2H])([2H])N1C(=O)c2cccc(OC(F)F)c2[C@H]2C[C@@H]1c1nc3cc(F)c(-c4cnc(P(C)(C)=O)cc4C)cc3n12` [Example 89, (7R,14R)-1-(difluoromethoxy)-11-(6-(dimethylphosphoryl)-4-methylpyridin-3-yl)-10-fluoro-6-(methyl-d3)-6,7-dihydro-7,14-methanobenzo[f]benzo[4,5]imidazo[1,2-a][1,4]diazocin-5(14H)-one], the IC50 fell in the range of 10000 to 30000 nM.

In the case of `[2H]C([2H])([2H])N1C(=O)c2cccc(OC(F)F)c2[C@H]2C[C@@H]1c1nc3ccc(-c4ccc(P(C)(C)=O)c(F)c4C)cc3n12` [Example 90, (7R,14R)-1-(difluoromethoxy)-11-(4-(dimethylphosphoryl)-3-fluoro-2-methylphenyl)-6-(methyl-d3)-6,7-dihydro-7,14-methanobenzo[f]benzo[4,5]imidazo[1,2-a][1,4]diazocin-5(14H)-one], the 50% inhibitory concentration (IC50) is less than 100 nM.

With `[2H]C([2H])([2H])N1C(=O)c2cccc(OC(F)F)c2[C@H]2C[C@@H]1c1nc3ccc(-c4ccc(P(C)(C)=O)nc4C)cc3n12` [Example 91, (7R,14R)-1-(difluoromethoxy)-11-(6-(dimethylphosphoryl)-2-methylpyridin-3-yl)-6-(methyl-d3)-6,7-dihydro-7,14-methanobenzo[f]benzo[4,5]imidazo[1,2-a][1,4]diazocin-5(14H)-one], the 50% inhibitory concentration (IC50) was less than 100 nM.

As for `[2H]C([2H])([2H])N1C(=O)c2cccc(OC(F)F)c2[C@H]2C[C@@H]1c1nc3ccc(-c4ccc(P(C)(C)=O)nc4F)cc3n12` [Example 92, (7R,14R)-1-(difluoromethoxy)-11-(6-(dimethylphosphoryl)-2-fluoropyridin-3-yl)-6-(methyl-d3)-6,7-dihydro-7,14-methanobenzo[f]benzo[4,5]imidazo[1,2-a][1,4]diazocin-5(14H)-one], the IC50 was less than 100 nM.

As for `[2H]C([2H])([2H])N1C(=O)c2cccc(OC(F)F)c2[C@H]2C[C@@H]1c1nc3ccc(-c4cnc(P(C)(C)=O)cc4Cl)cc3n12` [Example 93, (7R,14R)-11-(4-chloro-6-(dimethylphosphoryl)pyridin-3-yl)-1-(difluoromethoxy)-6-(methyl-d3)-6,7-dihydro-7,14-methanobenzo[f]benzo[4,5]imidazo[1,2-a][1,4]diazocin-5(14H)-one], the IC50 is less than 100 nM.

With `[2H]C([2H])([2H])N1C(=O)c2cccc(OC(F)F)c2[C@H]2C[C@@H]1c1nc3ccc(-c4ccc(P(C)(C)=O)nc4Cl)cc3n12` [Example 94, (7R,14R)-11-(2-chloro-6-(dimethylphosphoryl)pyridin-3-yl)-1-(difluoromethoxy)-6-(methyl-d3)-6,7-dihydro-7,14-methanobenzo[f]benzo[4,5]imidazo[1,2-a][1,4]diazocin-5(14H)-one], the IC50 is less than 100 nM.
